Marks after values point to notes of the source that are not given here.
Assays:
[1] = molecular target: T1, human NaV1.1 channel (SCN1A, HEK293T cells) (Homo sapiens, UniProt P35498); set-up: method as in Milligan et al., 2022; details: NaV1.1 concentration-response of CBD; mean ± SEM; ref Milligan et al., 2022; cited from earlier work
T1 construct: expressed in transfected cells

[2] = test system: mouse models of neuropathic pain; set-up: method as in Abraham et al., 2020; Casey et al., 2022; details: ref Abraham et al., 2020, Casey et al., 2022; cited from earlier work
[3] = molecular target: T2, human NaV1.6 channel (SCN8A, CHO cells) (Homo sapiens, UniProt Q9UQD0); set-up: method as in Milligan et al., 2022; details: NaV1.6 concentration-response of CBD; mean ± SEM; ref Milligan et al., 2022; cited from earlier work
T2 construct: expressed in transfected cells

[4] = molecular target: T3, human NaV1.2 channel (SCN2A, HEK293T cells) (Homo sapiens, UniProt Q99250); set-up: method as in Milligan et al., 2022; details: NaV1.2 concentration-response of CBD; mean ± SEM; ref Milligan et al., 2022; cited from earlier work
T3 construct: expressed in transfected cells

[5] = test system: patients with Dravet syndrome (DS) and Lennox-Gastaut syndrome (LGS); set-up: method as in earlier work; details: Phase III clinical trials, ref Devinsky et al., 2017a, 2017b, 2018, 2020, 2021, Tang and Fang; cited from earlier work
[6] = molecular target: T4, human NaV1.7 channel (SCN9A, CHO cells) (Homo sapiens, UniProt Q15858); set-up: method as in Milligan et al., 2022; details: NaV1.7 concentration-response of CBD; mean ± SEM; ref Milligan et al., 2022; cited from earlier work
T4 construct: expressed in transfected cells

[7] = molecular target: T1, human NaV1.1 channel (SCN1A, HEK293T cells); assay: Planar patch-clamp, biophysical properties (activation, SSFI, recovery from SSFI); type: cell-based; details: change vs vehicle DMSO at IC50 concentration (CBD 18.5 μM, CBGA 13.6 μM, CBDVA 50 μM)
Procedure: (§1) HEK293T cells stably expressing SCN1A or SCN2A and CHO cells stably expressing SCN8A or SCN9A were maintained as previously described ([Richards et al., 2018]; [Milligan et al., 2022]).
(§2) Patch-clamp recordings were made using a Patchliner® (Nanion Technologies, Munich, Germany) in the whole-cell configuration as previously described ([Richards et al., 2018]; [Milligan et al., 2022]). Briefly, cells were prepared in suspension at a density of 1 × 10^6-5 × 10^7 cells/mL. The external recording solution comprised (in mM): 140 NaCl, 4 KCl, 1 MgCl2, 2 CaCl2, 5 D-glucose, 10 HEPES, pH 7.4 with NaOH, ∼295 mOsm. The internal recording solution comprised (in mM): 50 CsCl, 60 CsF, 10 NaCl, 20 EGTA, 10 HEPES, pH 7.2 with CsOH, ∼285 mOsm. Medium single-hole planar NPC-16 chips with an average resistance of ∼2.5 MΩ were used. Chip and whole-cell capacitance were fully compensated, and 50% series resistance compensation applied. Recordings were acquired at 50 kHz with the low pass filter set to 10 kHz in PATCHMASTER (HEKA Instruments, NY, United States) and performed at 27°C. Offline analysis was performed using Microsoft Excel, MatLab R2019a (MathWorks) and GraphPad Prism 8 (Molecular Devices).
(§3) Voltage protocols were used, as previously described ([Richards et al., 2018]). Briefly, to study the voltage-dependence of activation, cells were held at −120 mV and depolarized to test potentials, in 5 mV increments, between −120 mV and +50 mV for 100 ms. To study steady-state fast inactivation, cells were held at conditioning pre-pulse potentials ranging from −120 mV to +30 mV in 5 mV increments from a holding potential of −120 mV and a test pulse at 5 mV for 20 ms. Recovery from fast inactivation was studied by pre-pulsing the cells to 0 mV from a holding potential of −120 mV for 50 ms, to fully inactivate channels. The voltage was then stepped back to the holding potential for variable interpulse intervals (ipi from 0 to 39 ms in 3 ms increments). To test channel availability, the voltage was stepped to 0 mV for 50 ms.
(§4) To examine the voltage-dependence of activation, normalized current-voltage (I-V) relationships were converted to conductance (G) using the following equation: G = I/(V−V r ) where Vr is the reversal potential for Na^+. The voltage-dependence of conductance and availability were normalized and fitted to a Boltzmann equation: G = 1/(1 + exp [(V−V 0.5)/a]), where a is the slope of the half-maximum, V is the potential of the given pulse, and V 0.5 is the potential for the half-maximal activation/inactivation. The time course of inactivation was fitted to a single exponential function I/Imax = I0+A*exp (-t-t0/τ)+C, where I0 is the non-inactivating component, Imax is the peak current, t is time, and A is the component for the time constant τ. Time constants were plotted against voltage and the data fitted with a decaying exponential equation Y = span*exp (−K*x)+plateau, where span is the starting point of the curve, K is the decay factor, plateau is the value the curve decays to, and x is time. To measure recovery from inactivation, normalized currents were plotted against ipi and data fitted with equation I/I max = 1-exp/(rc + x), where I max is maximal current; rc recovery rate constant; x is time. Peak current (I) was plotted as fractional recovery against the recovery period by normalizing to the maximum current (Imax) during the conditioning potentials.

[8] = molecular target: T2, human NaV1.6 channel (SCN8A, CHO cells); assay: as above; type: cell-based; details: change vs vehicle DMSO at IC50 concentration (CBD 16.6 μM, CBGA 12.0 μM, CBDVA 24.1 μM)
Procedure: as §1, §2, §3, §4

[9] = molecular target: T4, human NaV1.7 channel (SCN9A, CHO cells); assay: as above; type: cell-based; details: change vs vehicle DMSO at IC50 concentration (CBD 11.9 μM, CBGA 16.4 μM, CBDVA 60 μM)
Procedure: as §1, §2, §3, §4

[10] = molecular target: T3, human NaV1.2 channel (SCN2A, HEK293T cells); assay: as above; type: cell-based; details: change vs vehicle DMSO at IC50 concentration (CBD 18.4 μM, CBGA 14.7 μM, CBDVA 60 μM)
Procedure: as §1, §2, §3, §4

T4 sequence (Q15858 whole entry): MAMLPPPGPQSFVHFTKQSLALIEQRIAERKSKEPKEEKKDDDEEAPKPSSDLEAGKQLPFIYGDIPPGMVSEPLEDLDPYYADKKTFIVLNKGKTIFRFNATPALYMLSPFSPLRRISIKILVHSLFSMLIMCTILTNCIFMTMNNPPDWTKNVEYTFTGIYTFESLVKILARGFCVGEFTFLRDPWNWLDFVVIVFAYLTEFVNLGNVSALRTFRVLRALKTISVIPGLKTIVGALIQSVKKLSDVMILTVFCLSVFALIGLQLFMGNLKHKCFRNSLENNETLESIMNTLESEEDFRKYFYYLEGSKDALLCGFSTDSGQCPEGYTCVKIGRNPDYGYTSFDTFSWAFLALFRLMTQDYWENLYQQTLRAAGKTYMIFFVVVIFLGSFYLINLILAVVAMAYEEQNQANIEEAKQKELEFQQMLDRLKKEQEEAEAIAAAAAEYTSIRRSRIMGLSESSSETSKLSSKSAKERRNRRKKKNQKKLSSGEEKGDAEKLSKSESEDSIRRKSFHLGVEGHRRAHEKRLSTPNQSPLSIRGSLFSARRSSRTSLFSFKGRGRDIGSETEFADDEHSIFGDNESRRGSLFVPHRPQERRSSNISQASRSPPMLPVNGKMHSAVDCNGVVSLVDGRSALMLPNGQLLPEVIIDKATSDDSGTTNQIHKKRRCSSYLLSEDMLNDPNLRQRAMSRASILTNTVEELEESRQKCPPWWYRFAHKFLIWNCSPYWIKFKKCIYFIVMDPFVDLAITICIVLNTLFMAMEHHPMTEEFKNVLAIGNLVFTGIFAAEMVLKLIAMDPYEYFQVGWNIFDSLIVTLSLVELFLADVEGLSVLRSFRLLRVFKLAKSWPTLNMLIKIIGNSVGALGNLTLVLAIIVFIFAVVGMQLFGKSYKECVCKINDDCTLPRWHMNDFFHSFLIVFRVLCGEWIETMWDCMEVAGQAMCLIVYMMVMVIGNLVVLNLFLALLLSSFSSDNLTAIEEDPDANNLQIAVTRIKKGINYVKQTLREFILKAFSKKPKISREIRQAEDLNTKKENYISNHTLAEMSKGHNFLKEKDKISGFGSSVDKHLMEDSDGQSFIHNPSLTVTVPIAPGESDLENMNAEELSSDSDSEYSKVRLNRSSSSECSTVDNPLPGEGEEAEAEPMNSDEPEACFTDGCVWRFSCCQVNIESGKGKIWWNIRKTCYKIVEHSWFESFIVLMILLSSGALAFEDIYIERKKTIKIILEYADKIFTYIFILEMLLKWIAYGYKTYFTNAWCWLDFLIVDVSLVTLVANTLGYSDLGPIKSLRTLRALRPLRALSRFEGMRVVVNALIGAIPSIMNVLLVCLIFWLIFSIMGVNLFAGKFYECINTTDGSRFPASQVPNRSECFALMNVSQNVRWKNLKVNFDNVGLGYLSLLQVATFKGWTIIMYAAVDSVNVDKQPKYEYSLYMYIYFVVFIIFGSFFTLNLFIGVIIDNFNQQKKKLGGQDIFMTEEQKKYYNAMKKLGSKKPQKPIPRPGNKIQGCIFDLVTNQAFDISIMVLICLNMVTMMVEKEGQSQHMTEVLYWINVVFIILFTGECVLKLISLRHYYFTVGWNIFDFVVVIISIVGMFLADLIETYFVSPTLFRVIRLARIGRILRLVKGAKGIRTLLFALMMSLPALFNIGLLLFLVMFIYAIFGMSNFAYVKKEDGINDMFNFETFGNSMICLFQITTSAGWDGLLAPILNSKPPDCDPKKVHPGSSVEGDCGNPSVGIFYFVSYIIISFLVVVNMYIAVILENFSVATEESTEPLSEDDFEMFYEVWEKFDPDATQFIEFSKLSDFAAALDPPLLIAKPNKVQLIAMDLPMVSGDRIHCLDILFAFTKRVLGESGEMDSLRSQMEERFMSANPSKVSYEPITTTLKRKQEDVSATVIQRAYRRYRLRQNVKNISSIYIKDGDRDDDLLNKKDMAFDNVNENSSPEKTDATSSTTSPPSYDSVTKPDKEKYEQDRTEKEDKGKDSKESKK
T2 sequence (Q9UQD0 whole entry): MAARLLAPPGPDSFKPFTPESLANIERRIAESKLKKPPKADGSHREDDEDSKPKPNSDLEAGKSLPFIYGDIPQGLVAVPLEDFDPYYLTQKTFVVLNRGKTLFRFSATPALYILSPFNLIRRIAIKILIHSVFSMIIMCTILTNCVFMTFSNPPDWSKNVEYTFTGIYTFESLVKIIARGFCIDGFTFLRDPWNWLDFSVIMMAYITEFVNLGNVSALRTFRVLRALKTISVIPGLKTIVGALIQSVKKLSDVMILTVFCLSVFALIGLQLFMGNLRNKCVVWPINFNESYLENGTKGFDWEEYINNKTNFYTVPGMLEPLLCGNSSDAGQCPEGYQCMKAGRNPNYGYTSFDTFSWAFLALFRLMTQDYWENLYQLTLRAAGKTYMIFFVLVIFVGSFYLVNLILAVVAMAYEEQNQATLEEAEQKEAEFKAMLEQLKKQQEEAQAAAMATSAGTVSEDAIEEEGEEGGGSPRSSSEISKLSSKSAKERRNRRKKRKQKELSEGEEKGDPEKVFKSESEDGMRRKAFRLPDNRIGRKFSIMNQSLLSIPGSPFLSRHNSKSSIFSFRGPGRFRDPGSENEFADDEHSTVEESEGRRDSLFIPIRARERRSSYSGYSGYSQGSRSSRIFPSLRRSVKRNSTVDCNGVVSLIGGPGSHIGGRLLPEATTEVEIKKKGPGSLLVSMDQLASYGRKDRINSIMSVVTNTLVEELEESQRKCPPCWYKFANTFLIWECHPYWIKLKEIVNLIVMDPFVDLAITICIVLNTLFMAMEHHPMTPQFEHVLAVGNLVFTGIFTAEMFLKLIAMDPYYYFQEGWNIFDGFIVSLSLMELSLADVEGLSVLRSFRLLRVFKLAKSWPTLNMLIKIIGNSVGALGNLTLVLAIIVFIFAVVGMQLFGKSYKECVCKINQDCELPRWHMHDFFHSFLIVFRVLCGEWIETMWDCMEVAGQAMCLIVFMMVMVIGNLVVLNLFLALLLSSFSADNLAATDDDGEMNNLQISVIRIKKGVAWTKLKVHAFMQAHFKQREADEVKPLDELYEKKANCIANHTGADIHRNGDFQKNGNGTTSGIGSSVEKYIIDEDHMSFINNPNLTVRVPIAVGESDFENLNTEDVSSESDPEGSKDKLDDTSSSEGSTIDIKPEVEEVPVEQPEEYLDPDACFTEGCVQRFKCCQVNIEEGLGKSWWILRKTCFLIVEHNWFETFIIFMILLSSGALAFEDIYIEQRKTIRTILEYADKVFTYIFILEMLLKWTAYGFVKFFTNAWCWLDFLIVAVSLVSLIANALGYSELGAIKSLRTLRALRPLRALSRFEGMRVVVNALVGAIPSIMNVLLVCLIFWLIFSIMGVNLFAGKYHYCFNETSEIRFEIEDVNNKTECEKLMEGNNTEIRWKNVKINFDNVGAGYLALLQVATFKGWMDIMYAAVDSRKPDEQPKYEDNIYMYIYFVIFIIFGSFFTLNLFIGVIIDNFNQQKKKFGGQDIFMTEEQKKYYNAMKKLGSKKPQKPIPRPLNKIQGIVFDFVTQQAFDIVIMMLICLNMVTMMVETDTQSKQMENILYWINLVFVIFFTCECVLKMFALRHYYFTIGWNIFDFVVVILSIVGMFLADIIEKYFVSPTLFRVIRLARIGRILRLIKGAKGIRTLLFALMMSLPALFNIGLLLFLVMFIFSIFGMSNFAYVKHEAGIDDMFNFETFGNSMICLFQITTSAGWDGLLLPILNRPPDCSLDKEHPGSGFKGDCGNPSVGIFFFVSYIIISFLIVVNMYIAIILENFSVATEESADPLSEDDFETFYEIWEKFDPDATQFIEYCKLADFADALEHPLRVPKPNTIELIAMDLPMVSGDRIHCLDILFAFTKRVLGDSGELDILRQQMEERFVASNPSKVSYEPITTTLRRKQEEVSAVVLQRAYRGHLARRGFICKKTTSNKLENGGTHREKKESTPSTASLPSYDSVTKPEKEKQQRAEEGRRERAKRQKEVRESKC

C=C(C)[C@@H]1CCC(C)=C[C@H]1c1c(O)cc(CCCCC)cc1O [CBD, cannabidiol, reference compound]
Slope (Hill slope coefficient) [1]: 2.1 ± 0.8 | Effect on allodynia [2]: reduced allodynia | Slope (Hill slope coefficient) [3]: 1.3 ± 0.4 | Slope (Hill slope coefficient) [4]: 1.4 ± 0.4 | Effect on seizures in patients [5]: reduced seizures | Slope (Hill slope coefficient) [6]: 3.1 ± 0.6 | Inactivation △ V0.5 inact ([7]; SSFI): −5.6 ± 1.1**** mV | Inactivation △ slope factor ([7]; SSFI): 0.5 ± 0.3 | Activation △ Slope factor [7]: 0.7 ± 0.2** | Activation △ V0.5 act [7]: 0.3 ± 1.2 mV | Inactivation △ τinact SSFI at 5 mV [7]: 0.03 ± 0.02 | Inactivation △ V0.5 inact ([8]; SSFI): −5.3 ± 3.6 mV | Inactivation △ slope factor ([8]; SSFI): −0.3 ± 0.7 | Activation △ Slope factor [8]: 0.2 ± 0.2 | Activation △ V0.5 act [8]: −0.6 ± 1.1 mV | Inactivation △ τinact SSFI at 5 mV [8]: 0.03 ± 0.06 | Inactivation △ V0.5 inact ([9]; SSFI): −3.7 ± 1.2** mV | Inactivation △ slope factor ([9]; SSFI): 1.2 ± 0.3*** | Activation △ Slope factor [9]: 1.9 ± 0.3**** | Activation △ V0.5 act [9]: 5.7 ± 2.3* mV | Inactivation △ τinact SSFI at 5 mV [9]: 0.3 ± 0.1* | Inactivation △ V0.5 inact ([10]; SSFI): −4.2 ± 1.9 mV | Inactivation △ slope factor ([10]; SSFI): 0.1 ± 0.2 | Activation △ Slope factor [10]: 1.0 ± 0.3* | Activation △ V0.5 act [10]: 3.3 ± 2.7 mV | Inactivation △ τinact SSFI at 5 mV [10]: 0.08 ± 0.07
